ChEMBL document CHEMBL2375240, “The alpha-carbonic anhydrase from the thermophilic bacterium Sulfurihydrogenibium yellowstonense YO3AOP1 is highly susceptible to inhibition by sulfonamides” (Bioorg Med Chem, 2013)

Biological target: Carbonic anhydrase 1 (Homo sapiens, UniProt P00915)
Sequence (P00915 whole entry): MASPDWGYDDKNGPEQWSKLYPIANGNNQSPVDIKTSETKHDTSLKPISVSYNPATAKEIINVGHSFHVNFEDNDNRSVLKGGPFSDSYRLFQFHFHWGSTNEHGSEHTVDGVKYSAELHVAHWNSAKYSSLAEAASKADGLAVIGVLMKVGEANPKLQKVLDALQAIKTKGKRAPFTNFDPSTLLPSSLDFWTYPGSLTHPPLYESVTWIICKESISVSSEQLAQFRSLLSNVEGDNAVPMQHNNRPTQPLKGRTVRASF

| Ki [nM] | Compound |
| --- | --- |
| 23000 | NS(=O)(=O)c1nc2ccc(OCCO)cc2s1 |
| 185 | Cn1nc(S(N)(=O)=O)s/c1=N/S(=O)(=O)c1ccc(N)cc1 |
| 55 | Nc1ccc2nc(S(N)(=O)=O)sc2c1 |
